Test system: Plasmodium berghei
Experiment: Luciferase/luciferin-expressing antifolate-resistant parasites were used to infect a culture of HepG2 cells that were pre-incubated with compounds. Infected hepatocytes emit light due to the luciferase reaction. Assay results are presented as the percent inhibition of light emission compared to control. […]
Type: functional
Conditions: sporozoite; for IC90: read-out: LUCIFERASE INFECTION ASSAY - IC90
[1] = read-out: LUCIFERASE INFECTION ASSAY - IC50

| Structure (SMILES) | IC90 | IC50 [1] | other results |
| --- | --- | --- | --- |
| O=C(c1[nH]nc2ccccc12)N1CCN(Cc2ccc(C(F)(F)F)cc2)CC1 | > 10 µM |  | IC50 (HEPG2TOX_HILL_SLOPE 2.95, HEPG2TOX_R_SQUARED 0.96, PBLUC_HILL_SLOPE 4.05, PBLUC_R_SQUARED 0.587, read-out: LUCIFERASE INFECTION ASSAY - IC50): 6.61 µM |
| Cc1c(C(=O)OC(C(=O)c2ccccc2)c2ccccc2)sc2ncn(C)c(=O)c12 (configuration not stated) | 8.68 µM |  | IC50 (PBLUC_HILL_SLOPE 24.2, PBLUC_R_SQUARED 0.462, read-out: LUCIFERASE INFECTION ASSAY - IC50): 7.93 µM |
| N=C1C(=S)N(c2ccc(Cl)c(Cl)c2)C(=O)N1c1ccc(OC(F)(F)F)cc1 | > 7.6 µM |  | IC50 (FFLUC_HILL_SLOPE 13.1, FFLUC_R_SQUARED 0.176, read-out: LUCIFERASE INFECTION ASSAY - IC50): > 7.6 µM |
| CC(C)(CNC(=O)c1ccc(F)cc1)SCc1ccc(F)cc1 | > 9.84 µM |  | IC50 (HEPG2TOX_HILL_SLOPE 0.147, HEPG2TOX_R_SQUARED 0.538, PBLUC_HILL_SLOPE 1.03, PBLUC_R_SQUARED 0.662, read-out: LUCIFERASE INFECTION ASSAY - IC50): 3.54 µM |
| CNc1snc(C)c1C(=O)OCCCOC(=O)c1c(C)nsc1NC | 6.67 µM |  | IC50 (PBLUC_HILL_SLOPE 109, PBLUC_R_SQUARED 0.523, read-out: LUCIFERASE INFECTION ASSAY - IC50): 6.54 µM |
| CN(C)CCNS(=O)(=O)c1ccc(Cl)c([N+](=O)[O-])c1 | > 10 µM | > 10 µM |  |
| CCCCCCN(C(=O)COC(=O)c1c(C)[nH]c(C2CC2)nc1=O)c1nc(-c2ccccc2)cs1 | 4.6 µM |  | IC50 (PBLUC_HILL_SLOPE 8.31, PBLUC_R_SQUARED 0.597, read-out: LUCIFERASE INFECTION ASSAY - IC50): 3.53 µM |
| Cc1ccccc1-c1cn2c(-c3cccc(O)c3)cnc2cn1 | 8.68 µM |  | IC50 (HEPG2TOX_HILL_SLOPE 2.6, HEPG2TOX_R_SQUARED 0.936, PBLUC_HILL_SLOPE 3.74, PBLUC_R_SQUARED 0.417, read-out: LUCIFERASE INFECTION ASSAY - IC50): 4.82 µM |
| CCOC(=O)c1nc(-c2ccc([N+](=O)[O-])o2)no1 | > 13 µM | > 13 µM |  |
| CC1CCN(C(=O)c2csc(-c3ccco3)n2)c2ccccc2S1 (configuration not stated) | 7.59 µM |  | IC50 (PBLUC_HILL_SLOPE 1.74, PBLUC_R_SQUARED 0.579, read-out: LUCIFERASE INFECTION ASSAY - IC50): 2.14 µM |
| O=C(Nc1ccc(Oc2ccnc3cc(Cl)ccc23)cc1)c1ccco1 | 2.99 µM |  | IC50 (PBLUC_HILL_SLOPE 3.16, PBLUC_R_SQUARED 0.555, read-out: LUCIFERASE INFECTION ASSAY - IC50): 1.49 µM |
| COc1ccc2c(c1)c(CC(=O)Nc1cccc(S(=O)(=O)N3CCCC3)c1)c(C)n2C(=O)c1ccc(Cl)cc1 | > 10 µM |  | IC50 (FFLUC_HILL_SLOPE 4.55, FFLUC_R_SQUARED 0.0972, read-out: LUCIFERASE INFECTION ASSAY - IC50): > 10 µM |
| OCc1cccc(-c2ccc3ncc(-c4cccs4)n3n2)c1 | 4.05 µM |  | IC50 (HEPG2TOX_HILL_SLOPE 1.03, HEPG2TOX_R_SQUARED 0.934, PBLUC_HILL_SLOPE 12.1, PBLUC_R_SQUARED 0.638, read-out: LUCIFERASE INFECTION ASSAY - IC50): 3.38 µM |
| CC(C)(C)NC(=S)Nc1cc(C(F)(F)F)cc(C(F)(F)F)c1 | > 9.58 µM |  | IC50 (PBLUC_HILL_SLOPE 27.4, PBLUC_R_SQUARED 0.229, read-out: LUCIFERASE INFECTION ASSAY - IC50): 9.58 µM |
| c1ccc(-c2cc3nc(NCC4CC4)nc(NCC4CCCCC4)c3s2)cc1 | 3.98 µM |  | IC50 (HEPG2TOX_HILL_SLOPE 9.69, HEPG2TOX_R_SQUARED 0.573, PBLUC_HILL_SLOPE 14.3, PBLUC_R_SQUARED 0.374, read-out: LUCIFERASE INFECTION ASSAY - IC50): 3.41 µM |
| CC1(C)N=C(N)N=C(N)N1c1ccc([N+](=O)[O-])cc1 | > 10 µM | > 10 µM |  |
| CN(CC(=O)Nc1cccc(F)c1)C(=O)c1csc(COc2ccc(Cl)cc2)n1 | 6.38 µM |  | IC50 (HEPG2TOX_HILL_SLOPE 11.6, HEPG2TOX_R_SQUARED 0.266, PBLUC_HILL_SLOPE 151, PBLUC_R_SQUARED 0.192, read-out: LUCIFERASE INFECTION ASSAY - IC50): 6.29 µM |
| N#Cc1cccnc1N1CCN(C(=O)c2cc(-c3ccccc3)nn2-c2ccccc2)CC1 | > 10 µM | > 10 µM |  |
| O=C(Nc1nc2ccccn2c1C(=O)NC1CCCCC1)c1cc(F)ccc1F | 2.12 µM |  | IC50 (HEPG2TOX_HILL_SLOPE 1.14, HEPG2TOX_R_SQUARED 0.869, PBLUC_HILL_SLOPE 2.93, PBLUC_R_SQUARED 0.682, read-out: LUCIFERASE INFECTION ASSAY - IC50): 1 µM |
| Clc1c(-c2c(-c3ccccc3)[nH]c3ccccc23)nc2ccccc2c1-c1ccccc1 | 8.61 µM |  | IC50 (FFLUC_HILL_SLOPE 0.689, FFLUC_R_SQUARED 0.515, HEPG2TOX_HILL_SLOPE 2.63, HEPG2TOX_R_SQUARED 0.531, PBLUC_HILL_SLOPE 2.99, PBLUC_R_SQUARED 0.588, read-out: LUCIFERASE INFECTION ASSAY - IC50): 4.13 µM |
| CC1CCc2sc(C(=O)N/N=C/c3sc(N4CCCCC4)nc3-c3cccs3)cc2C1 (configuration not stated) | 5.03 µM |  | IC50 (FFLUC_HILL_SLOPE 3.43, FFLUC_R_SQUARED 0.712, HEPG2TOX_HILL_SLOPE 2.9, HEPG2TOX_R_SQUARED 0.728, PBLUC_HILL_SLOPE 3.74, PBLUC_R_SQUARED 0.491, read-out: LUCIFERASE INFECTION ASSAY - IC50): 2.79 µM |

| Structure (SMILES) | IC90 | IC50 [1] | other results |
| --- | --- | --- | --- |
| Cc1ccc(C(=O)/C=C/c2cn(C)c(=O)n(C)c2=O)c(C)c1 | > 10 µM |  | IC50 (PBLUC_HILL_SLOPE 10.4, PBLUC_R_SQUARED 0.461, read-out: LUCIFERASE INFECTION ASSAY - IC50): 8.74 µM |
| Fc1ccc(NC(=S)N2CCN(c3ncnc4sccc34)CC2)c(F)c1 | 2.97 µM |  | IC50 (HEPG2TOX_HILL_SLOPE 0.955, HEPG2TOX_R_SQUARED 0.941, PBLUC_HILL_SLOPE 17.3, PBLUC_R_SQUARED 0.219, read-out: LUCIFERASE INFECTION ASSAY - IC50): 2.62 µM |
| COc1cc(OC)cc(-c2cc3c(Nc4ccc(OC)c(OC)c4)nccc3[nH]2)c1 | 6.83 µM |  | IC50 (HEPG2TOX_HILL_SLOPE 3.11, HEPG2TOX_R_SQUARED 0.652, PBLUC_HILL_SLOPE 1.69, PBLUC_R_SQUARED 0.756, read-out: LUCIFERASE INFECTION ASSAY - IC50): 1.86 µM |
| COc1ccccc1NC(=S)NC(c1ccccc1)c1ccccc1 | > 9.47 µM | > 9.47 µM |  |
| Cc1cccc(-n2c(SC(C)C(N)=O)nc3ccccc3c2=O)n1 (configuration not stated) | > 10 µM | > 10 µM |  |
| CC(C)(C)NCC(O)CON=C1c2ccccc2-c2ccccc21 (configuration not stated) | > 10 µM |  | IC50 (PBLUC_HILL_SLOPE 12, PBLUC_R_SQUARED 0.408, read-out: LUCIFERASE INFECTION ASSAY - IC50): 9.17 µM |
| O=C(OCc1cccc(Cl)c1)c1cncn1-c1ccccc1 | > 10 µM | > 10 µM |  |
| O=[N+]([O-])c1ccc(C2Nc3ccc(F)cc3N2)s1 (configuration not stated) | 6.65 µM |  | IC50 (PBLUC_HILL_SLOPE 4.41, PBLUC_R_SQUARED 0.496, read-out: LUCIFERASE INFECTION ASSAY - IC50): 4.04 µM |
| Oc1c(Cl)cc(Cl)cc1C1Nc2cc(Cl)c(C(F)(F)F)cc2N1 (configuration not stated) | 0.127 µM |  | IC50 (HEPG2TOX_HILL_SLOPE 1.05, HEPG2TOX_R_SQUARED 0.96, PBLUC_HILL_SLOPE 13.2, PBLUC_R_SQUARED 0.588, read-out: LUCIFERASE INFECTION ASSAY - IC50): 0.108 µM |
| Cc1ccc(S(=O)(=O)CCN2C(=O)CSC2=O)cc1 | > 11 µM | > 11 µM |  |
| COc1ccc(N(CCC(N)=O)CC(=O)NC(C)c2ccccc2OC)cc1 (configuration not stated) | > 10 µM | > 10 µM |  |
| CCc1nnc(NC(=O)CCSCc2cn3ccccc3n2)s1 | > 10 µM | > 10 µM |  |
| Oc1cc(C(F)(F)F)nc2c(C(F)(F)F)cccc12 | 5.16 µM |  | IC50 (FFLUC_HILL_SLOPE 0.264, FFLUC_R_SQUARED 0.18, PBLUC_HILL_SLOPE 9.49, PBLUC_R_SQUARED 0.416, read-out: LUCIFERASE INFECTION ASSAY - IC50): 4.09 µM |
| CNc1nc2cnc(Nc3cccc(C)c3)cc2n1-c1cc(OC)c(OC)c(OC)c1 | > 10 µM | > 10 µM |  |
| CCOC(=O)C1SC(C(C#N)c2ccccn2)=NC1(c1ccc(C)cc1)C(F)(F)F (configuration not stated) | > 10 µM | > 10 µM |  |
| COc1ccc(Nc2cc3c(cn2)cc(-c2ccc(C(=O)N(C)C)cc2)n3Cc2ccccc2)cc1 | 9.34 µM |  | IC50 (HEPG2TOX_HILL_SLOPE 6.65, HEPG2TOX_R_SQUARED 0.257, PBLUC_HILL_SLOPE 26.3, PBLUC_R_SQUARED 0.641, read-out: LUCIFERASE INFECTION ASSAY - IC50): 8.59 µM |
| NC(=O)C(C(=O)/C=C/c1ccc(Cl)cc1)=C1SCS1 | 4.75 µM |  | IC50 (PBLUC_HILL_SLOPE 78.5, PBLUC_R_SQUARED 0.479, read-out: LUCIFERASE INFECTION ASSAY - IC50): 4.62 µM |
| COC(OC)c1ccc(C#N)c(SCC(=O)c2ccc(Cl)cc2)n1 | > 9.1 µM | > 9.1 µM |  |
| Cc1cc(Oc2c(C)cccc2C)c2ccccc2n1 | > 12.5 µM |  | IC50 (PBLUC_HILL_SLOPE 0.514, PBLUC_R_SQUARED 0.0638, read-out: LUCIFERASE INFECTION ASSAY - IC50): > 12.5 µM |
| c1ccc(-c2csc3ncnc(NC4CCCCC4)c23)cc1 | 4.21 µM |  | IC50 (HEPG2TOX_HILL_SLOPE 16.2, HEPG2TOX_R_SQUARED 0.468, PBLUC_HILL_SLOPE 9.94, 2.76, PBLUC_R_SQUARED 0.433, 0.667, read-out: LUCIFERASE INFECTION ASSAY - IC50): 4.13 µM |
